The results in this text go back to PMC8865654, “Chiral evasion and stereospecific antifolate resistance in Staphylococcus aureus” (PLoS Computational Biology, 2022).

The target of assay [1] is T1, Staphylococcus aureus dihydrofolate reductase (SaDHFR), wild type (Staphylococcus aureus, UniProt P0A017).
T1 construct: gene folA
Put plainly: X-ray crystal structure (re-refined from 4XEC data and newly deposited); also enzyme inhibition with t-NADPH pre-incubation (Fig E in S1 Text). The assay is classed as binding.

Assay [2] addresses T1, Staphylococcus aureus dihydrofolate reductase (SaDHFR), wild type. As to the kind of experiment: X-ray crystal structure (ternary with R-27); enzyme inhibition assay with isolated t-NADPH. Format: biochemical.

T1 sequence (P0A017 2-159): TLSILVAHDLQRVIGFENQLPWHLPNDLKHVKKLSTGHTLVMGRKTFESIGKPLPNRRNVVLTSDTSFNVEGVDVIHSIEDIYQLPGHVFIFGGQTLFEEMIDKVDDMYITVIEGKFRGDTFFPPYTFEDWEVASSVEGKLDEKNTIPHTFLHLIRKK

In the case of `CCc1nc(N)nc(N)c1C#C[C@H](C)c1cc(OC)cc(-c2ccncc2)c1` [R-27], the “X-ray crystal structure (re-refined from 4XEC data and newly deposited); also en” value in assay [1] is “the PDB ID for R-27:t-NADPH:SaDHFR is 7T7S”.
By IC50 is commonly meant the midpoint of a concentration-inhibition curve. The molecule `NC(=O)C1=CN2[C@@H]3O[C@H](COP(=O)(O)OP(=O)(O)OC[C@H]4O[C@@H](n5cnc6c(N)ncnc65)[C@H](OP(=O)(O)O)[C@@H]4O)[C@@H](O)[C@H]3O[C@@H]2CC1` [t-NADPH] displayed an IC50 in assay [2] of 111 ± 6 µM.
